# Data as given in PMC10122656, “Siglec-6 mediates the uptake of extracellular vesicles through a noncanonical glycolipid binding pocket” (Nature Communications, 2023).
# Values joined by “and” are separate entries in the source; they are usually repeats but may differ in a detail not shown here. Equal values may be shown once.
# Tests used:
# [1] = system: memory B-cells; experiment: Liposome binding to peripheral blood memory B-cells by flow cytometry; assay type: cell-based, human
# Protocol: 200,000 cells/well were plated into a 96-well U-bottom microplate and centrifuged at 300 × g for 5 min. The cells were then resuspended in 50 µL of 50 µM liposome/50 µg/mL (protein concentration) of EV solution in DMEM F12 5% FBS and incubated at 37 °C for 30 min. Excess liposomes were then removed via centrifuged at 300 × g for 5 min followed by washing the cells with FACS solution. The cells were then resuspended in (1:250 V/V) anti-Siglec-flow buffer (1% V/V FBS, 500 µM, EDTA Hank’s Balanced Salt Solution pH 7.4), solution and left to rest on ice for 30 min. The cells were then centrifuged again at 300 × g for 5 min and the cells were resuspended in FACS buffer solution and were then ready for analysis by flow cytometry. Information regarding antibody clone, catalog number supplier, label isotype, and dilution can be found in Supplementary Table 6. The Siglec-positive cells were gated on for liposome-binding analysis (Supplementary Fig. 1b).
# Flow cytometry measurements were collected on a 5-laser Fortessa X-20 (BD Bioscience). All the resulting data were analyzed using FlowJo (10.5.3) software (BD Biosciences).
# [2] = target: T1, R92K Siglec-6-Fc (Homo sapiens, UniProt O43699, R92K); experiment: Bead assay (Siglec-Fc on streptavidin microbeads, flow cytometry); assay type: binding
# T1 construct: the Siglecs as Fc chimeras; made in house; host or cells: WT CHO cells
# Protocol: (§1) Siglec-Fc constructs designed by Rodrigues et al.[30] were used in this work. Siglec-Fc constructs were expressed using WT CHO cells in cell culture media as described above with 1% HEPES. Cells incubated as described above for one-week post confluency. The supernatant was harvested and stored at 4 °C.
# (§2) The purification was heavily inspired by Rodrigues et al.[30]. The purification of the Siglec-Fcs from supernatant began with Ni^2+ affinity chromatography using an AKTA FPLC equipped with a HisTrap Excel column (GE). The column was equilibrated with fifteen column volumes (CVs) of equilibrium buffer (500 mM NaCl, 20 mM NaPO4H2, pH 7.4). The Siglec-Fc containing supernatant was then loaded in its entirety onto the column. The column was then washed with fifteen CVs of wash buffer (500 mM NaCl, 30 mM imidazole, 20 mM NaPO4H2, pH 7.4). The Siglec-Fc was then eluted in 20 in 1 mL fractions with twenty CVs of elution buffer (500 mM NaCl, 500 mM imidazole, 20 mM NaPO4H2, pH 7.4). Fractions containing Siglec-Fc were compiled and then prepared for the next stage of purification by diluting the fractions 1:4 with buffer W (100 mM Tris–HCl, 150 mM NaCl, 1 mM EDTA, pH 8.0). A Strep-Tactin column (IBA life sciences) was washed with fifteen CVs of buffer W. The Siglec-Fc-buffer W solution was then loaded in its entirety onto the column. The bound Siglec-Fc was then washed with fifteen CVs of buffer W. Siglec-Fc was eluted from the column with 15 column volumes of buffer E (100 mM Tris–HCl, 150 mM NaCl, 1 mM EDTA, 10 mM d-Desthiobiotin, pH 8.0). Fractions containing Siglec-Fc were pooled and dialyzed against PBS to remove any d-Desthiobiotin. After dialysis, Siglec-Fcs were concentrated using an ultra-centrifugal device (30 kDa MWCO) and aliquoted into 5 µg aliquots, and frozen. The Siglec-Fcs were then lyophilized overnight, and the lyophilized Siglec-Fcs were stored at −20 °C.
# (§3) Pierce^TM Streptavidin Magnetic Beads (Thermo Scientific) were blocked with 2% (m/V) BSA on ice for 1 h. Siglec-Fc in PBS was added then added to the bead solution such that the final concentration was 25 µg/mL. The Siglec-Fc was complexed to the beads for 1 h on ice. Excess Siglec-Fc was removed by washing the beads with 2% BSA solution and 50 µM liposome or 50 µg/mL (protein concentration) EV solution was then added to the beads. The beads were incubated with the liposomes/EVs for 30 min at 37 °C. The beads were then washed with 2% BSA solution and flow cytometry was used to measure the binding between the beads and the liposomes.
# [3] = target: T2, WT Siglec-6-Fc (Homo sapiens, UniProt O43699); experiment: as above; assay type: binding
# T2 construct: the Siglecs as Fc chimeras; made in house; host or cells: WT CHO cells
# Protocol: as §1, §2, §3
# [4] = Ganglioside content quantification in liposomes by ESI-MS; assay type: physicochemical; conditions: peer review file; Supplementary Table 1
# Protocol: The average ganglioside content in a given liposome sample was measured by electrospray ionization mass spectrometry (ESI-MS) using an internal standard (IS)[70]. Briefly, the liposome sample was first disassembled in a methanol solution of 0.15% formic acid, and a known amount of IS was added. The solution was then analyzed by ESI-MS. The total ion abundance (Ab) ratio of the ganglioside (GSL) to the IS measured by ESI-MS is related to the corresponding solution concentration ratio by Eq. (1):1 R=AbGSL/AbIS=GSL/IS and thus the ganglioside concentration can be obtained from linear regression. The corrected ganglioside percentage (GSL%corr) and the ganglioside incorporation in the liposome can be found from Eqs. (2) and (3), respectively, where [GSL]nominal is the nominal concentration of the ganglioside used for liposome preparation:2 GSL%corr=[GSL]/[TotalLipid] 3 Incorporation=[GSL]/GSLnominal
# The corresponding deuterium labeled gangliosides, N-ω-CD3-octadecanoyl monosialoganglioside GM2 (GM2-d3), and N-ω-CD3-octadecanoyl monosialoganglioside GM3 (GM3-d3), purchased form Matreya LLC (State College, PA), were used as IS for GM2 and GM3 content quantification, respectively. All these measurements were carried out in negative ion mode using a Q Exactive Hybrid Quadrupole-Orbitrap mass spectrometer coupled with the Nanospray Flex Ion Source (Thermo Fisher Scientific, Bremen, Germany). […]
# T2 sequence (O43699 27-347 limits assumed): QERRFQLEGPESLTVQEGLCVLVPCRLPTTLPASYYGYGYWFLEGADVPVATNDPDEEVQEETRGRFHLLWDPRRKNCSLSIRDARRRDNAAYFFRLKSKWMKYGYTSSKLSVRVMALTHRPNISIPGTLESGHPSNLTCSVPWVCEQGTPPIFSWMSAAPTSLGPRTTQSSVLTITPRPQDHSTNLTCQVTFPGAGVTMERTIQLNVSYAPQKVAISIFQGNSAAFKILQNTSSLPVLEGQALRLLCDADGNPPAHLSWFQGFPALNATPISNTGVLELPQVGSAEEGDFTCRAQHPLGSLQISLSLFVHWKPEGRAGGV
# T1 sequence (O43699 27-347 R92K limits assumed): as the sequence (O43699 27-347 limits assumed) above, with R66K counted along it
compound,measurement,setting,value
CCCCCCCCCCCCCCCCOCC(COCCCCCCCCCCCCCCCC)OCc1cn(CCO[C@@H]2O[C@H](CO)[C@@H](O[C@@H]3O[C@H](CO)[C@H](O)[C@H](O[C@]4(C(=O)O)C[C@H](O)[C@@H](NC(C)=O)[C@H]([C@H](O)[C@H](O)CO)O4)[C@H]3O)[C@H](O)[C@H]2O)nn1 [GM3-DAG],"liposome binding, fluorescence signal (replicates)","[1]; sheet Figure S29, 5% GM3-DAG liposomes, cells not given",361 and 385 and 363 and 344
same,"liposome binding, fluorescence signal (replicates)","[2]; sheet Figure S27, R92K, assay format not given",264 and 225 and 240 and 223
same,"liposome binding, fluorescence signal (replicates)","[3]; sheet Figure S27, WT, assay format not given",13816 and 10279 and 11696 and 11729
CCCCCCCCCCCCCCCCOCC(COCCCCCCCCCCCCCCCC)OCc1cn(CCO[C@@H]2O[C@H](CO)[C@@H](O[C@@H]3O[C@H](CO)[C@H](O)[C@H](O[C@]4(C(=O)O)C[C@H](O)[C@@H](NC(C)=O)[C@H]([C@H](O)[C@H](O)CO)O4)[C@H]3O)[C@H](O)[C@H]2O)nn1 [nGL 5],5 nGLL binding to memory B-cells after pre-treatment with anti-Siglec-6 antibody,[1],Blocking of 5 nGLLs to human memory B-cells was achieved
same,5 nGLL binding to memory B-cells compared to naïve B-cells,[1]; four healthy donors,significant binding
same,binding of 5 nGLLs to R92K Siglec-6 Fc compared to WT Siglec-6,[2]; bead assay,less than 5%
same,blocking of EV binding to Siglec-6 with 5 mol% 5 nGLLs,[3]; bead assay,competed away binding of EVs
GM2,incorporation of ganglioside into liposomes,[4],98%
GM3,incorporation of ganglioside into liposomes,[4],96%
